Earlier results on four compounds are cited in patent US20260137642A1 (CANCER PREVENTION PHARMACEUTICALS, INC., priority 2021, published 2026).

For series [1] the following is noted: in vivo; cited from earlier work.
For series [2] the following is noted: phase II study; cited from earlier work.
The conditions of series [3]: cited from earlier work.
For series [4] the following is noted: cited from earlier work. This is another data set of the same source.

As for `Cc1ccc(-c2cc(C(F)(F)F)nn2-c2ccc(S(N)(=O)=O)cc2)cc1` [Celecoxib, 4-[5-(4-Methylphenyl)-3-(trifluoromethyl)pyrazol-1-yl]benzenesulfonamide], in series [1], the “Increase in rates of heart and blood vessel disease” value is on record as 30%; the “Risk of gastrointestinal side effects” value is on record as “greater than 80%”.

For `CCNCCCNCCCNCCCNCC` [DENSPM], the Tolerability entry in series [2] is “well-tolerated”.

As to `CC1=C(CC(=O)O)c2cc(F)ccc2/C1=C\c1ccc([S+](C)[O-])cc1` (centres unmarked) [Sulindac, (Z)-5-fluoro-2-methyl-1-((4-(methylsulfinyl)phenyl)methylene)-1H-indene-3-acetic acid], the “Fraction of the drug absorbed” value in series [3] (after oral administration) is “about 90%”. Besides, the “Time to peak plasma levels” value in series [3] (fasting patients) is reported as “about 2 hours”. Moreover, the “Patients with mild gastrointestinal effects” value in series [4] (abdominal pain and nausea most frequent) is recorded as approximately 20%. Further, the “Patients with skin rash and pruritus” value in series [4] (human, in vivo) is 5%.

For `CSc1ccc(/C=C2/C(C)=C(CC(=O)O)c3cc(F)ccc32)cc1` [sulfide metabolite], in series [3] (in vivo), the Mean half-life was 16.4 h.
